Measured values as given in EP0719267B1, “SECOND MESSENGER CELL SIGNALING INHIBITORS” (CELL THERAPEUTICS, INC., priority 1993, dated 1994).

What was measured:
[1] = system: IL-2 (alpha chain CD25) receptor; assay: IL-2 receptor expression on anti-CD3 stimulated splenocytes (flow cytometry); type: cell-based, mouse; settings: anti-CD3 10 µg/ml, 1 µM
Protocol: This investigation illustrates IL-2 (alpha chain CD25) receptor expression on mouse splenoyctes. The IL-2 receptor is not expressed on resting T-cells, but is rapidly-induced by certain stimulants, e.g. antigen recognition or treatment with ConA or antibodies to CD3 (anti-CD3). IL-2-dependent proliferation requires IL-2 receptor expression. […] 49 (1 µM). Following overnight incubation, the splenocytes were stained with a fluoresceinated anti-IL-2 receptor antibody and fluorescence measured by flow cytometry. Figures 5A and 5B are frequency histograms of measurements for 20,000 cells per sample.
In another assay, inventive compound no. […] Murine splenocytes were activated for 24 hours with anti-CD3 (1 µg/ml), stained with a fluorescent antibody to CD25 and analyzed by flow cytometry.

IL-2 = IL-2 production in thymocytes stimulated with ConA and IL-1 (ELISA); type: cell-based, murine; settings: ConA and IL-1, 4 days
Excerpt: Thymocytes were stimulated with ConA and IL-1 for 4 days with or without adding inventive compounds to the culture media. The supernatants were removed and assayed by ELISA for IL-2 levels by a commercially available kit.

[2] = system: murine cytotoxic T-cell line, CT6; assay: Cytokine-induced proliferation of the cytotoxic T-cell line CT6 / CT-6.1; type: cell-based; settings: added one hour prior to IL-2, thymidine at 48 hours
Protocol: Another assay in this example was used to determine inhibitive activity of the inventive compounds on direct IL-2-induced proliferation in a murine cytotoxic T-cell line, CT6. The CT6 cell line is an IL-2-dependent cell line. IL-2 was removed from the medium for 24 hours prior to stimulation. […] 49, 50, 45, 43 or 41 were added at various concentrations. The cells were stimulated with IL-2 and amount of tritiated thymidine dye incorporated was measured 48 hours later.
In another related assay, inhibitory effects on CT6 cell proliferation is examined. CT6 cells are a murine IL-2 dependent, cytotoxic T cell line that proliferate in response to murine IL-2 (15 U/ml).
CT-6.1 cells were starved overnight and stimulated with IL-2 (20 ng/ml). Twenty hours later, cells were labeled for 4 hours with ^3H-TdR and counted by liquid scintillation.
CT6.1 cells were cultured with IL-2 with or without the addition of inventive compound no. 45 (2 µM) and viable cells counted for up to 8 days. On day 4, two cultures previously incubated with compound no. 45, were washed and recultured with fresh IL-2 with or without compound no. 45 (2 µM).
Procedurally, CT-6.1 cells were starved overnight and stimulated with either IL-2 (20 ng/ml), IL-4 (50 ng/ml) or IL-7 (25 ng/ml). ^3H-TdR was added at 20 hours, cells were harvested 4 hours later, and the incorporation of ^3H-TdR was determined.

[3] = system: splenocyte IL-2-stimulated proliferation; assay: Splenocyte IL-2-stimulated proliferation; type: cell-based; settings: Mus musculus, read-out: block of splenocyte IL-2-stimulated proliferation

IL-2 receptor expression [1]: has no effect on receptor expression
Compound: CCCCCCCCCCNCC(O)CCCCCCCCCn1c(=O)c2c(ncn2C)n(C)c1=O (stereo not shown) [compound no. 49, 1-(11-Decylamino-10-hydroxyundecyl)-3,7-dimethylxanthine]
IL-2 production (IL-2): do not inhibit production of IL-2 | inhibition of direct IL-2-induced proliferation [2]: inhibited direct IL-2-induced CT6 proliferation | inhibition at 1 µM [3]: 90%
